Data published in patent US8415351B2 (priority 2007, dated 2013).

What was measured:
[1] = molecular target: T1, HCV polymerase 1B (Δ21 NS5B, BK) (Hepatitis C virus genotype 1b, UniProt P26663); test: biochemical
T1 construct: 20 to 50 nM Δ21 NS5B
Experimental: (§1) HCV Polymerase Inhibition Assay
(§2) Either two-fold serial dilutions (fractional inhibition assay) or a narrower range of dilutions spanning the IC50 of the inhibitor (tight binding assay) of the inhibitors were incubated with 20 mM Tris-Cl pH 7.4, 2 mM MnCl2, 1 mM dithiothreitol, 1 mM ethylene diamine tetraacetic acid (EDTA), 60 to 125 μM GTP and 20 to 50 nM Δ21 NS5B (HCV Strain 1B (BK, Genbank accession number M58335, or H77, Genbank accession number AF011751)) for 15 min at room temperature. The reaction was initiated by the addition of 20 μM CTP, 20 μM ATP, 1 μM ^3H-UTP (10 mCi/umol), 5 nM template RNA and 0.1 U/μl RNase inhibitor (RNasin, Promega), and allowed to proceed for 2 to 4 h at room temperature. Reaction volume was 50 μl. The reaction was terminated by the addition of 1 volume of 4 mM spermine in 10 mM Tris-Cl pH 8.0, 1 mM EDTA. After incubation for at least 15 min at room temperature, the precipitated RNA was captured by filtering through a GF/B filter (Millipore) in a 96 well format. The filter plate was washed three times with 200 μl each of 2 mM spermine, 10 mM Tris-Cl pH 8.0, 1 mM EDTA, and 2 times with ethanol. After air-drying, 30 μl of Microscint 20 scintillation cocktail (Packard) was added to each well, and the retained cpm were determined by scintillation counting. […] Retained cpm were plotted vs. inhibitor concentration and fit to equation 1 using non-linear regression (ref. 1) to obtain the IC50 values: Retained cpm=A[sqrt{(IC50+It−Et)^2+4*IC50*Et}−(IC50+It−Et)]
Ref. Morrison, J. F. and S. R. Stone. 1985. Approaches to the study and analysis of the inhibition of enzymes by slow- and tight-binding inhibitors. Comments Mol. Cell. Biophys. 2: 347-368.
The sequence of the template RNA used was: 5′-[…] […] […] […] […] […] […] […] […] […] […] […] […] […] […] […] […]-3′ (SEQ ID NO: 1)

[2] = molecular target: T2, HCV polymerase 1A (Δ21 NS5B, H77) (Hepatitis C virus genotype 1a, UniProt P27958); test: biochemical; conditions: IC50 1a
T2 construct: 20 to 50 nM Δ21 NS5B
T2 sequence (P27958 2421-2990, stated change not applied): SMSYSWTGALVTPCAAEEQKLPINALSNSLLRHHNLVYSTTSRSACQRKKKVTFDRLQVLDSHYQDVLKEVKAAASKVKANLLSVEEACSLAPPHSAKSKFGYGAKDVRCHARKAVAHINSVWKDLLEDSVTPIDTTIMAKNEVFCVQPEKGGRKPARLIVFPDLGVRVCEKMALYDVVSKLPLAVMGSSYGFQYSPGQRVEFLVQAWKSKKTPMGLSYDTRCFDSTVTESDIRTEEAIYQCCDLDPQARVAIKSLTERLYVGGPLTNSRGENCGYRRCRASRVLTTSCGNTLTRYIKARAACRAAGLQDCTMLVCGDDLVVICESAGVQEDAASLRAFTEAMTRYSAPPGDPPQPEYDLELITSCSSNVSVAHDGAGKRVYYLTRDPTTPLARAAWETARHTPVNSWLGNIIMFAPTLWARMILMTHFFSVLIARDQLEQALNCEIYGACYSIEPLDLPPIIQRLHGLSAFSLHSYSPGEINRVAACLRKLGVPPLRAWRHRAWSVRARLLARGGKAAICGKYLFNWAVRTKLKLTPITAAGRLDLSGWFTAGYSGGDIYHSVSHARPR
Experimental: as §1
as §2, with “The” for “Either two-fold serial dilutions (fractional inhibition assay) or a narrower range of dilutions spanning the IC50 of the inhibitor (tight binding assay) of the inhibitors were incubated with 20 mM Tris-Cl pH 7.4, 2 mM MnCl2, 1 mM dithiothreitol, 1 mM ethylene diamine tetraacetic acid (EDTA), 60 to 125 μM GTP and 20 to 50 nM Δ21 NS5B (HCV Strain 1B (BK, Genbank accession number M58335, or H77, Genbank accession number AF011751)) for 15 min at room temperature. The”
Ref. Morrison, J. F. and S. R. Stone. […] Approaches to the study and analysis of the inhibition of enzymes by slow- and tight-binding inhibitors. Comments Mol. Cell. Biophys.
The sequence of the template RNA used was: 5′-[…]

T1 sequence (P26663 2420-2989, stated change not applied): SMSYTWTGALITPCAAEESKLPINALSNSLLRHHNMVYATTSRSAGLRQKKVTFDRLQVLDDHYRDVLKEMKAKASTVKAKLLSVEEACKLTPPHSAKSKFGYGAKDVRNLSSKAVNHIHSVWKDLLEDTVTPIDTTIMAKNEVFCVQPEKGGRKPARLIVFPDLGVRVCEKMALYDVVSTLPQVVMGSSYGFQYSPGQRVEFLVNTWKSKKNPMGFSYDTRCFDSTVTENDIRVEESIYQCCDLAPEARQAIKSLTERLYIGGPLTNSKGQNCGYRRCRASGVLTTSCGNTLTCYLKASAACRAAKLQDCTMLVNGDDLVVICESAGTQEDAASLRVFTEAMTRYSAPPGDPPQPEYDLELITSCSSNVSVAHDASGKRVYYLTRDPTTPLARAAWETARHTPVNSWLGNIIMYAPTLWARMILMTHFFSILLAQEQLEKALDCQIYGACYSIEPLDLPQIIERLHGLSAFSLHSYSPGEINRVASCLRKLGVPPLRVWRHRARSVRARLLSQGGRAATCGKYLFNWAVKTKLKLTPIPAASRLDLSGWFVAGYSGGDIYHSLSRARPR

| Structure (SMILES) | IC50 [1] [nM] | IC50 [2] [nM] |
| --- | --- | --- |
| COc1c(-c2ncc(-c3ccc([N+](=O)[O-])cc3)o2)cc(N2CCC(=O)NC2=O)cc1C(C)(C)C [IA-L0-1.11, 1-(3-tert-butyl-4-methoxy-5-(5-(4-nitrophenyl)oxazol-2-yl)phenyl)dihydropyrimidine-2,4(1H,3H)-dione] | > 1000 | > 1000 |
| COc1c(-c2nc3cc(N(S(C)(=O)=O)S(C)(=O)=O)ccc3[nH]2)cc(N2CCC(=O)NC2=O)cc1C(C)(C)C [IA-L0-2.10, N-(2-(3-tert-butyl-5-(2,4-dioxotetrahydropyrimidin-1(2H)-yl)-2-methoxyphenyl)-1H-benzo[d]imidazol-5-yl)-N-(methylsulfonyl)methanesulfonamide] | > 1000 | > 1000 |
| CN(C(=O)c1cc(N2CCC(=O)NC2=O)cc(C(C)(C)C)c1O)c1ccccc1 [IA-L3-1.1, 3-tert-butyl-5-(2,4-dioxotetrahydropyrimidin-1(2H)-yl)-2-hydroxy-N-methyl-N-phenyl-benzamide] | > 1000 | > 1000 |
| COc1c(C(=O)Nc2ccc(N(C)S(C)(=O)=O)cc2)cc(N2CCC(=O)N(C)C2=O)cc1C(C)(C)C [IA-L3-1.25, 3-tert-butyl-N-[4-(methanesulfonyl-methyl-amino)-phenyl]-2-methoxy-5-(3-methyl-2,4-dioxo-tetrahydro-pyrimidin-1-yl)-benzamide] | > 1000 | > 1000 |
| COc1c(C(=O)Nc2ccc(C(C)=O)cc2)cc(N2CCC(=O)NC2=O)cc1C(C)(C)C [IA-L3-1.42, N-(4-acetylphenyl)-3-tert-butyl-5-(2,4-dioxotetrahydropyrimidin-1(2H)-yl)-2-methoxy-benzamide] | > 1000 | > 1000 |
| CCOC(=O)CC(=O)c1ccc(NC(=O)c2cc(N3CCC(=O)NC3=O)cc(C(C)(C)C)c2OC)cc1 [IA-L3-1.43, ethyl 3-(4-(3-tert-butyl-5-(2,4-dioxotetrahydropyrimidin-1(2H)-yl)-2-methoxybenzamido)phenyl)-3-oxopropanoate] | > 1000 | > 1000 |
| COc1c(C(=O)Nc2ccc(NC(C)=O)cc2)cc(N2CCC(=O)NC2=O)cc1C(C)(C)C [IA-L3-1.47, N-(4-acetamidophenyl)-3-tert-butyl-5-(2,4-dioxotetrahydropyrimidin-1(2H)-yl)-2-methoxy-benzamide] | > 1000 | > 1000 |
| COc1c(C(=O)Nc2ccc(NC(=O)COC(C)=O)cc2)cc(N2CCC(=O)NC2=O)cc1C(C)(C)C [IA-L3-1.48, 2-(4-(3-tert-butyl-5-(2,4-dioxotetrahydropyrimidin-1(2H)-yl)-2-methoxybenzamido)phenyl-amino)-2-oxoethyl acetate] | > 1000 | > 1000 |
| COC(=O)Nc1ccc(NC(=O)c2cc(N3CCC(=O)NC3=O)cc(C(C)(C)C)c2OC)cc1 [IA-L3-1.49, Methyl 4-(3-tert-butyl-5-(2,4-dioxotetrahydropyrimidin-1(2H)-yl)-2-methoxybenzamido) phenylcarbamate] | > 1000 | > 1000 |
| COc1c(C(=O)Nc2ccc(NC(=O)OC(C)(C)C)cc2)cc(N2CCC(=O)NC2=O)cc1C(C)(C)C [IA-L3-1.50, Tert-butyl 4-(3-tert-butyl-5-(2,4-dioxotetrahydropyrimidin-1(2H)-yl)-2-methoxybenzamido)-phenylcarbamate] | > 1000 | > 1000 |
| CCN(c1ccc(NC(=O)c2cc(N3CCC(=O)NC3=O)cc(C(C)(C)C)c2OC)cc1)S(C)(=O)=O [IA-L3-1.63, 3-tert-butyl-5-(2,4-dioxotetrahydropyrimidin-1(2H)-yl)-N-(4-(N-ethylmethylsulfonamido)phenyl)-2-methoxybenzamide] | > 1000 | > 1000 |
| COc1c(C(=O)Nc2ccc(N(COC(=O)C(C)(C)C)S(C)(=O)=O)cc2)cc(N2CCC(=O)NC2=O)cc1C(C)(C)C [IA-L3-1.65, (N-(4-(3-tert-butyl-5-(2,4-dioxotetrahydropyrimidin-1(2H)-yl)-2-methoxybenzamido)phenyl)methylsulfonamido)methyl pivalate] | > 1000 | > 1000 |
